Activity calls are given as the source filed them. No cut-off for these calls is given here.
Experiments:
[1] = tested on: HGC-27; test: Upregulation of MAP1LC3B2 mRNA expression in human HGC-27 cells at 2 uM incubated for 24 hrs; type: functional, cell-based
[2] = tested on: HGC-27; test: Upregulation of MAP1LC3B mRNA expression in human HGC-27 cells at 2 uM incubated for 24 hrs; type: functional, cell-based
[3] = tested on: HGC-27; test: Induction of autophagy in human HGC-27 cells assessed as decrease in P62 protein level in tumor tissue at 25 to 100 mg/kg, ip administered daily; type: functional, organism-based; conditions: dose 25-100 mg/kg
[4] = tested on: AGS; test: Induction of cell cycle arrest in human AGS cells assessed as increase in S phase ratio at 0.5 to 2 uM incubated for 24 hrs by staining based flow cytometric analysis ( Rvb = 32.86%); type: functional; conditions: dose 0.5-2 µM
[5] = Toxicity in male ICR mouse assessed as body weight gain at 1 g/Kg, ip measured after 7 days; type: organism-based; conditions: in vivo, 1000 mg/kg, 168 h, time 7 day
[6] = tested on: AGS; test: Induction of apoptosis in human AGS cells assessed as late apoptotic cells at 2 uM incubated for 48 hrs by annexin V-FITC and PI staining based flow cytometry analysis (reference value: 3.15%); type: functional
[7] = Selectivity index, ratio of IC50 for antiproliferative activity against human LO2 cells to IC50 for antiproliferative activity against human HGC-27 cells; type: toxicity, cell-based; conditions: LO2 cells and HGC-27 cells, read-out: Ratio IC50
[8] = tested on: HGC-27; test: Induction of apoptosis in human HGC-27 cells assessed as increase in cleaved caspase-3 expression at 0.5 to 2 uM incubated overnight by Western blotting analysis; type: functional, cell-based; conditions: dose 0.5-2 µM
[9] = tested on: HGC-27; test: Downregulation of RNA splicing pathway in human HGC-27 cells at 2 uM incubated for 24 hrs by GESA; type: functional, cell-based
[10] = tested on: HGC-27; test: Downregulation of SRSF1 mRNA expression in human HGC-27 cells incubated for 24 hrs by SYBR green dye based RT-qPCR analysis; type: functional, cell-based; conditions: dose 0.5-2 µM
[11] = tested on: HGC-27; test: Downregulation of Bcl-xl expression in human HGC-27 cells at 0.5 to 2 uM incubated overnight by Western blotting analysis; type: functional, cell-based; conditions: dose 0.5-2 µM
[12] = tested on: AGS; test: Induction of autophagy in human AGS cells assessed as upregulation of ATG5 protein level at 0.5 to 2 uM incubated for 48 hrs by Western blotting analysis; type: functional, cell-based; conditions: dose 0.5-2 µM
[13] = tested on: HGC-27; test: Downregulation of RNA splicing pathway in human HGC-27 cells at 2 uM incubated for 24 hrs by KEGG enrichment analysis; type: functional, cell-based
[14] = tested on: HGC-27; test: Induction of autophagy in human HGC-27 cells assessed as increase in LC3 II/LC3 I ratio in tumor tissue at 25 to 100 mg/kg, ip administered daily; type: functional, organism-based; conditions: dose 25-100 mg/kg
[15] = tested on: MCF7; test: Antiproliferative activity against human MCF7 cells assessed as inhibition of cell proliferation incubated for 72 hrs by MTT assay; type: functional, cell-based; conditions: MCF7, 72 h
[16] = tested on: AGS; test: Induction of apoptosis in human AGS cells assessed as late apoptotic cells at 0.5 uM incubated for 48 hrs by annexin V-FITC and PI staining based flow cytometry analysis (reference value: 3.15%); type: functional
[17] = tested on: HGC-27; test: Induction of apoptosis in human HGC-27 cells assessed as necrotic cells at 1 uM incubated for 48 hrs by annexin V-FITC and PI staining based flow cytometry analysis (reference value: 0.062%); type: functional
[18] = tested on: HGC-27; test: Antiproliferative activity against human HGC-27 cells assessed as inhibition of cell proliferation incubated for 72 hrs by MTT assay; type: functional, cell-based; conditions: HGC-27, 72 h
[19] = tested on: HGC-27; test: Downregulation of SRSF1 protein level in human HGC-27 cells at 0.5 to 2 uM by Western blotting analysis; type: functional, cell-based; conditions: dose 0.5-2 µM
[20] = tested on: AGS; test: Induction of autophagy in human AGS cells assessed as upregulation of LC3 II protein level at 0.5 to 2 uM incubated for 48 hrs by Western blotting analysis; type: functional, cell-based; conditions: dose 0.5-2 µM
[21] = tested on: HGC-27; test: Induction of cell cycle arrest in human HGC-27 cells assessed as increase in S phase ratio at 0.5 to 2 uM incubated for 24 hrs by staining based flow cytometric analysis ( Rvb = 50.19%); type: functional; conditions: dose 0.5-2 µM
[22] = tested on: AGS; test: Induction of apoptosis in human AGS cells assessed as increase in cleaved PARP expression at 0.5 to 2 uM incubated overnight by Western blotting analysis; type: functional, cell-based; conditions: dose 0.5-2 µM
[23] = tested on: HGC-27; test: Induction of autophagy in human HGC-27 cells assessed as upregulation of LC3 II protein level at 0.5 to 2 uM incubated for 48 hrs by Western blotting analysis; type: functional, cell-based; conditions: dose 0.5-2 µM
[24] = tested on: HGC-27; test: Induction of cell cycle arrest in human HGC-27 cells assessed as increase in P21 expression at 0.5 to 2 uM by Western blotting analysis; type: functional, cell-based; conditions: dose 0.5-2 µM
[25] = tested on: A549; test: Antiproliferative activity against human A549 cells assessed as inhibition of cell proliferation incubated for 72 hrs by MTT assay; type: functional, cell-based; conditions: A549, 72 h
[26] = tested on: HGC-27; test: Induction of autophagy in human HGC-27 cells assessed as upregulation of Beclin1 protein level at 0.5 to 2 uM incubated for 48 hrs by Western blotting analysis; type: functional, cell-based; conditions: dose 0.5-2 µM
[27] = tested on: HGC-27; test: Induction of apoptosis in human HGC-27 cells assessed as early apoptotic cells at 0.5 uM incubated for 48 hrs by annexin V-FITC and PI staining based flow cytometry analysis (reference value: 3.13%); type: functional
[28] = tested on: HGC-27; test: Antitumor activity against human HGC-27 cells xenografted in male BALB/c nude mouse assessed as tumor growth suppression administered intraperitoneally every day for 15 days; type: functional, cell-based; conditions: dose 25-100 mg/kg, route ip, time 15.0 day
[29] = Antiproliferative activity against human LO2 cells assessed as inhibition of cell proliferation incubated for 72 hrs by MTT assay; type: toxicity, cell-based, L02
[30] = tested on: HGC-27; test: Induction of apoptosis in human HGC-27 cells assessed as late apoptotic cells at 2 uM incubated for 48 hrs by annexin V-FITC and PI staining based flow cytometry analysis (reference value: 5.02%); type: functional
[31] = tested on: HGC-27; test: Downregulation of Bcl-xl protein level in human HGC-27 cells at 0.5 to 2 uM by Western blotting analysis; type: functional, cell-based; conditions: dose 0.5-2 µM
[32] = Toxicity in male BALB/c nude mouse assessed as change in body weight at 25 to 100 mg/kg, ip administered daily and measured after 15 days; type: organism-based; conditions: in vivo, 360 h, dose 25-100 mg/kg, time 15 day
[33] = tested on: U-251; test: Antiproliferative activity against human U-251 cells assessed as inhibition of cell proliferation incubated for 72 hrs by MTT assay; type: functional, cell-based; conditions: U-251, 72 h
[34] = Selectivity index, ratio of IC50 for antiproliferative activity against human LO2 cells to IC50 for antiproliferative activity against human AGS cells; type: cell-based; conditions: LO2 cells and AGS cells, read-out: Ratio IC50
[35] = tested on: AGS; test: Induction of autophagy in human AGS cells assessed as downregulation of P62 protein level at 0.5 to 2 uM incubated for 48 hrs by Western blotting analysis; type: functional, cell-based; conditions: dose 0.5-2 µM
[36] = tested on: HGC-27; test: Induction of apoptosis in human HGC-27 cells assessed as necrotic cells at 0.5 uM incubated for 48 hrs by annexin V-FITC and PI staining based flow cytometry analysis (reference value: 0.062%); type: functional
[37] = Acute toxicity in male ICR mouse assessed as lethal dose administered as ip; conditions: in vivo
[38] = tested on: AGS; test: Induction of autophagy in human AGS cells assessed as upregulation of LC3 I protein level at 0.5 to 2 uM incubated for 48 hrs by Western blotting analysis; type: functional, cell-based; conditions: dose 0.5-2 µM

Structure (SMILES): CC(C)[C@]12O[C@H]1[C@@H]1O[C@]13[C@]1(O[C@H]1C[C@H]1C4=C(CC[C@@]13C)C(=S)OC4)[C@@H]2O
- Activity [1]: Active
- Activity [2]: Active
- Activity [3]: Active
- Activity [4]: 52.16%
- Activity [5]: Non-toxic
- Activity [6]: 31.7%
- selectivity ratio [7]: 6.56
- Activity [8]: Active
- Activity [9]: Active
- Activity [10]: Dose-dependent-effect
- Activity [11]: Active
- Activity [12]: Active
- Activity [13]: Active
- Activity [14]: Active
- IC50 [15]: 0.76 µM
- Activity [16]: 7.89%
- Activity [17]: 0.11%
- IC50 [18]: 0.33 µM
- Activity [19]: Active
- Activity [20]: Active
- Activity [21]: 75.34%
- Activity [22]: Active
- Activity [23]: Active
- Activity [24]: Active
- IC50 [25]: 6.93 µM
- Activity [26]: Active
- Activity [27]: 3.5%
- Activity [28]: Dose-dependent-effect
- IC50 at 72 h [29]: 2.86 µM
- Activity [30]: 19.7%
- Activity [31]: Active
- Activity [32]: Non-toxic
- IC50 [33]: 1.62 µM
- selectivity ratio [34]: 4.55
- Activity [35]: Active
- Activity [36]: 0.13%
- LD50 [37]: > 1000 mg/kg
- Activity [38]: Active

— ChEMBL document CHEMBL6114967, “Design and synthesis of novel sulfur-substituted triptolide with the ability to induce autophagy through inhibition of SRSF1 expression” (Eur J Med Chem, 2025)
